Results: PMC12040169 (PLOS Biology, 2025)

Assay: in vitro
Settings: human, hela cells

| Compound | viability at 28.5 h, 10 µM [%] |
| --- | --- |
| CC(N)Cc1cn(C)c2ccccc12 (stereo not drawn) [CBK012030C] | 83.8 |

Same assay, conditions: human, hela cells, % viability

| Compound | viability at 28.5 h, 10 µM [%] |
| --- | --- |
| Cc1ccnc(NS(=O)(=O)c2ccc(NS(C)(=O)=O)cc2)n1 [CBK261552] | 100 |
| COc1ccc(OC)c(NS(=O)(=O)c2ccc(C(=O)O)cc2)c1 [CBK267603] | 106 |
| CCCS(=O)(=O)n1c(=O)n(CCc2c[nH]c3ccccc23)c2ccccc21 [CBK106515] | 87.8 |
| CCN(C(=O)Cn1c(=O)cc(C)c2ccccc21)C1CCN(C)CC1 [CBK281871] | 86.8 |
| CCc1nc2n(n1)CC(NCc1nc(C)ccc1O)CC2 (stereo not drawn) [CBK306107] | 106 |
| O=C(Nc1cccnc1)c1cccc(S(=O)(=O)N2CCCC2)c1 [CBK269846] | 93.3 |
| COC(=O)c1ccc(-n2cccn2)c(C#Cc2cccnc2)c1 [CBK284525] | 95.2 |
| COc1ccnc(N2CCN(Cc3nnnn3C3CC3)CC2)n1 [CBK305808] | 85.6 |
| CCOC(=O)c1csc(COc2ccccc2Cl)n1 [CBK057782] | 113 |
| CS(=O)(=O)c1ccc(Cn2c(=O)[nH]c3ncc(-c4cccc(/C=C/C(=O)O)c4)nc32)cc1 [CBK065059] | 97.7 |
| CCCN(CC1CC1)C(=O)CC1SC(NCC2CCCCC2)=NC1=O (stereo not drawn) [CBK067014] | 104 |
| CCN(CC)C(=O)N1CCC2(CC1)CC(=O)c1ccccc1O2 [CBK283495] | 105 |
| CC(=O)NCc1ccc(-c2ccc(C(=O)NCc3ccc4[nH]c(C)c(C)c4c3)c(C)n2)cc1 [CBK285888] | 72.1 |
| Cc1cccc(C2(O)CCN(CC(O)c3ccccc3)CC2)c1 (stereo not drawn) [CBK286325] | 106 |
| COc1cccc(N2CCN(CC(=O)N3CCC(C(N)=O)CC3)CC2)c1 [CBK202881] | 106 |
| Nc1nonc1NC(=O)N/N=C/c1ccc(C(F)(F)F)cc1 [CBK261813] | 99.8 |
| O=C(O)Cn1nnnc1CN1CCc2ccccc2C1 [CBK287097] | 94.3 |
| OCCCNc1nccnc1-c1ccco1 [CBK037346] | 99.2 |
| CCCc1n[nH]c(C(C)C)c1C(=O)OCC [CBK115724] | 98.7 |
| Cc1cc2c(=O)n(Cc3ccco3)c(SCc3cc(O)[nH]n3)nc2s1 [CBK268291] | 94.3 |
| CC(C)(C)C(O)CNc1ncnc2ccc(S(C)(=O)=O)cc12 (stereo not drawn) [CBK306494] | 76.8 |
| COc1cc2c(cc1OC)CN(S(=O)(=O)c1cc(C(=O)O)ccc1Cl)CC2 [CBK296923] | 96 |
| O=C(NCC1CCCO1)c1cc(S(=O)(=O)N2CCOCC2)c(Cl)cc1Cl (stereo not drawn) [CBK269691] | 90.3 |

| Compound | viability at 28.5 h, 10 µM [%] |
| --- | --- |
| O=C(CCN1C(=O)/C(=C\C=C\c2ccccc2)SC1=S)Nc1cc(Cl)ccc1O [CBK264792] | 96.2 |
| N/C(=N/c1ccccn1)C(F)(F)F [CBK021049] | 90.1 |
| COc1ccccc1-c1ccc(CN2CCC(NC(C)=O)(c3ccc(F)cc3)CC2)cc1 [CBK286349] | 90 |
| CCOC(=O)Cn1nnc(-c2ccc(Cl)cc2)n1 [CBK069596] | 95.8 |
| O=C(c1ccc(F)cc1)C1CCN(C/C=C/c2ccccc2)CC1 [CBK149124] | 90.4 |
| COc1cc(C=O)ccc1OC(=O)c1cn(-c2ccccc2)nc1-c1cccnc1 [CBK264255] | 89.6 |
| CC(C)C1C(=O)Nc2ccccc2N1C(=O)NCCC(=O)O (stereo not drawn) [CBK286659] | 87.4 |
| CC1CN(S(=O)(=O)c2ccc(NC(=O)C3CC(=O)Nc4cc(F)ccc43)cc2)CC(C)O1 (stereo not drawn) [CBK297933] | 91.4 |
| Cn1cc(CCNC(=O)Nc2ccc(N3CCCC3)nc2)cn1 [CBK305659] | 92.3 |
| COc1ccc(/C=N/NC(=O)c2ccc(CN3CCOCC3)cc2)cc1[N+](=O)[O-] [CBK262708] | 93 |
| CC(C)(C)NC(=O)C1C2CCC3(CC(=O)c4ccccc4O3)C21 (stereo not drawn) [CBK284821] | 81.8 |
| O=C(Cn1cccn1)Nc1ccc2c(c1)CN(Cc1ccccc1)C2 [CBK281829] | 85.6 |
| CCOC(=O)c1cnc(SCc2cccc([N+](=O)[O-])c2)nc1N [CBK266449] | 95 |
| CC(C)(C)OC(=O)N1CCC(COc2ccc(-c3ccc(S(C)(=O)=O)cc3)nc2)CC1 [CBK167839] | 108 |
| COc1cccc(OC)c1-c1cn2ccnc2c(NC2CC2)n1 [CBK038020] | 104 |
| C(=N\Nc1ccc2nn(-c3ccccc3)nc2c1)/c1c[nH]c2ccccc12 [CBK261064] | 91.6 |
| CC1(CNC(=O)c2ccccc2Cn2cccn2)COC1 [CBK281750] | 89.4 |
| CC(C)Cn1cnc(S(=O)(=O)N2CCN(CC(=O)NC3CC3)CC2)c1 [CBK304223] | 95.8 |
| CCCCC(=O)Nc1ccc(C(=O)N2CCN(C)CC2)cc1 [CBK304662] | 105 |
| O=C(O)c1ccc2[nH]cc(CN3CCOCC3)c2c1 [CBK287081] | 89.9 |
| Cc1ccc(NC(=O)c2ccccc2OCC(=O)NC23CC4CC(CC(C4)C2)C3)cc1Cl [CBK265091] | 101 |
| CCC(Oc1ccccc1)C(=O)Nc1ccccc1-c1ccccc1 (stereo not drawn) [CBK266031] | 108 |
| COc1cc(C(=O)Nc2nc3c(C)cccc3s2)cc(OC)c1OC [CBK287302] | 98.5 |

| Compound | viability at 28.5 h, 10 µM [%] |
| --- | --- |
| Cc1nn(Cc2cccc(Oc3ccccc3)c2)c(C)c1NC(=O)c1nc2ncccn2n1 [CBK267632] | 89 |
| O=c1c2cc(Br)cc(F)c2ncn1CCC1CCCO1 (stereo not drawn) [CBK306451] | 95.9 |
| N#Cc1cnc2ccccc2c1N1CCC(C(=O)O)CC1 [CBK288050] | 90 |
| Cn1nc(-c2ccccc2)cc1[C@H]1CN2CC[C@H]1C[C@@H]2CNC(=O)NCc1ccccc1 [CBK289098] | 104 |
| CC(NC(=O)Cc1c[nH]c(=O)[nH]c1=O)c1cc2cc(Cl)ccc2o1 (stereo not drawn) [CBK285673] | 100 |
| COc1cc(C(=O)N2CCC(n3c(=O)[nH]c4c(C)cccc43)CC2)ccc1C [CBK155372] | 94.2 |
| CN(C)c1nc2ccc(OCCN3CCOCC3)cc2s1 [CBK261135] | 82.5 |
| Cc1nn(C)c(Cl)c1CN(CCC#N)Cc1ccco1 [CBK304825] | 96.6 |
| CN(C)c1ccccc1-c1cc(Nc2ccc3cn[nH]c3c2)ncn1 [CBK090850] | 55.7 |
| CCCc1cc(C(N)=O)c(NC(=O)c2cc(-c3ccc(C)o3)nc3ccccc23)s1 [CBK267766C] | 90.9 |
| O=C1CCc2cc(S(=O)(=O)Nc3cccc(-c4ccc(F)cc4)c3)ccc2N1 [CBK286371] | 102 |
| CC(C)[C@@H](CO)n1c(=O)[nH]c2ncc(-c3cccc4ccccc34)nc21 [CBK064961] | 98.6 |
| Cn1nccc1C(=O)N[C@H]1CCC[C@@H](c2c[nH]c3ccccc23)C1 [CBK285073] | 93.6 |
| O=C(CNC(=O)c1ccccc1)N/N=C/c1ccc(Br)cc1 [CBK260957] | 103 |
| COC(=O)CO[C@@H]1CO[C@H]2[C@@H]1OC[C@@H]2NC(=S)Nc1ccccc1 [CBK289459] | 88.3 |
| CCc1ccc(NS(=O)(=O)c2cnn(CC)c2)cc1 [CBK270314] | 101 |
| CCOC(=O)N[C@@H](CC1CCCCC1)C(=O)NCCc1ccc(S(N)(=O)=O)cc1 [CBK015131] | 106 |
| CN(C)c1ccc(-c2ncnn2CC(F)(F)F)cn1 [CBK307215] | 88 |
| CC(CCCC(C)(C)O)CC1OCCC(C)O1 (stereo not drawn) [CBK019986] | 115 |
| Cc1c(S(=O)(=O)NCc2ccc(C(F)(F)F)c(F)c2)cnn1-c1ccccc1 [CBK062115] | 108 |
| O=C(c1[nH]nc2c1CCCC2)N1CCn2cc(C(F)(F)F)nc2C1 [CBK283915] | 96.7 |
| CNC(=S)N(Cc1ccc(S(N)(=O)=O)cc1)C1CC(=O)N(c2ccc(OC)cc2)C1=O (stereo not drawn) [CBK262940] | 95.1 |
| O=C1NN=C(O)C1Cc1ccccc1 (stereo not drawn) [CBK067758] | 101 |

| Compound | viability at 28.5 h, 10 µM [%] |
| --- | --- |
| Cc1ccc(NC(=O)c2cscn2)c(C)n1 [CBK200297] | 102 |
| Cc1cc(NC(=O)c2cc(Cl)ccc2[N+](=O)[O-])nc2c1c(=O)oc1ccccc12 [CBK291248] | 85.9 |
| Cc1ccc(Cl)c(OC(C)C(=O)N2CCOC(CC(=O)O)C2)c1 (stereo not drawn) [CBK304769] | 93 |
| CC1(C)COC(=O)N1C1CCN(C(=O)CNC(=O)c2cccs2)CC1 [CBK044501] | 93.1 |
| Cc1nn(C(C)C)c(C)c1CN(Cc1ccccn1)Cc1ccco1 [CBK283221] | 114 |
| O=C(c1cccs1)N1CCCN(c2nccc(C(F)(F)F)n2)CC1 [CBK019390] | 89.4 |
| O=C1CCC(=O)N1CCOc1nccnc1OC1CCN(CCOc2ccccc2)CC1 [CBK084354] | 101 |
| Cc1nc2c(C(=O)NCCOCCO)cnn2c(C)c1Cc1ccc(F)c(Cl)c1 [CBK167457] | 96.3 |
| Cn1c(=O)c(-c2nc3ccccc3[nH]2)c(O)c2ccccc21 [CBK027678] | 92.7 |
| CCN(CC)C(=O)N1CCC(c2cccnc2)CC1 [CBK283535] | 99.9 |
| CSc1nc(NC(=O)CCCc2ccccc2)cc(N2CCNCC2)n1 [CBK050258T] | 111 |
| O=C(O)CCCCn1c2c(c3ccccc31)CCCC2 [CBK000253] | 98.9 |
| CC1CCc2c(sc3ncnc(OCC(=O)N4CCOCC4)c23)C1 (stereo not drawn) [CBK306000] | 95.9 |
| CC1CCCCN1C(=O)CN1C(=O)N2CCCN=C2c2ccccc21 (stereo not drawn) [CBK284393] | 79.8 |
| COc1ccc(C(=O)CSc2nnc(C)[nH]2)cc1[N+](=O)[O-] [CBK264350] | 95.5 |
| CCOC(=O)c1cnn(C2CCCN(c3cccc(C#N)n3)C2)c1 (stereo not drawn) [CBK306430] | 81.5 |
| Cn1nc(C2CCCC2)cc1[C@H]1CN2CC[C@H]1C[C@@H]2CNS(C)(=O)=O [CBK288742] | 91.5 |
| c1ccc2[nH]c(SCCCCCSc3nc4ccccc4[nH]3)nc2c1 [CBK025418] | 101 |
| CC1CC1C(=O)NCCc1c[nH]c2cccc(C3(O)CCOCC3)c12 (stereo not drawn) [CBK284840] | 95.7 |
| COc1cccc(COc2cncc(Cl)n2)c1OC [CBK176057] | 86.3 |
